A short description of one series: cells. As to conditions: Homo sapiens, PC9-OR, 72 h.
Series [1] is described as follows: Antiproliferative activity against mouse BaF3 cells assessed as inhibition of cell proliferation incubated for 72 hrs by CCK-8 assay. The format is toxicity, cell-based.
In series [2] the test system is BaF3. The series can be described thus: cells. As to conditions: Mus musculus, BaF3, 72 h.
The test system of series [3] is BaF3. The experiment in a line: cells. As to conditions: Mus musculus, BaF3, 72 h. This is another data set of the same source.
The subject of the next series is A-431. The experiment in a line: cells. As to conditions: Homo sapiens, A-431, 72 h.
Series [4] addresses Epidermal growth factor receptor (Homo sapiens, UniProt P00533, L858R/T790M). The experiment in a line: Inhibition of recombinant N-terminal GST-tagged human EGFR T790M/L858R mutant (696 to end residues) extracted from baculovirus infect Sf21 insect cells incubated for 1 hrs by spectrophotometric analysis.
In series [5] the target is Epidermal growth factor receptor (Homo sapiens, UniProt P00533, C797S/EX19DEL/T790M). The series can be described thus: Inhibition of recombinant N-terminal GST-tagged human EGFR 19del/T790M/C797S mutant (668 to end residues) extracted from Sf9 insect cells incubated for 1 hrs by spectrophotometric analysis. The format is cell-free.
Series [6] addresses Epidermal growth factor receptor (Homo sapiens, UniProt P00533). The series can be described thus: Inhibition of recombinant wildtype N-terminal GST-tagged human EGFR kinase domain (696 to end residues) extracted from baculovirus infect Sf21 insect cells incubated for 1 hrs by spectrophotometric analysis.
A short description of series [7]: Induction of apoptosis in mouse BaF3 cells harboring EGFR 19del/T790M/C797S mutant assessed as late apoptotic cells at 1000 nM incubated for 48 hrs by Annexin V-FITC/PI staining based flow cytometric analysis (reference value: 1.47 %). Format: functional. (In flow cytometry, cells or beads pass a laser one at a time.)
The nature of series [8]: Induction of apoptosis in mouse BaF3 cells harboring EGFR 19del/T790M/C797S mutant assessed as late apoptotic cells at 100 nM incubated for 48 hrs by Annexin V-FITC/PI staining based flow cytometric analysis (reference value: 1.47 %). Format: functional.
Series [9] in a line: Induction of apoptosis in mouse BaF3 cells harboring EGFR 19del/T790M/C797S mutant assessed as early apoptotic cells at 1000 nM incubated for 48 hrs by Annexin V-FITC/PI staining based flow cytometric analysis (reference value: 0.36 %). Format: functional.
A short description of series [10]: Induction of apoptosis in mouse BaF3 cells harboring EGFR 19del/T790M/C797S mutant assessed as early apoptotic cells at 100 nM incubated for 48 hrs by Annexin V-FITC/PI staining based flow cytometric analysis (reference value: 0.36 %). The format is functional.
The nature of series [11]: Induction of apoptosis in mouse BaF3 cells harboring EGFR 19del/T790M/C797S mutant assessed as late apoptotic cells at 300 nM incubated for 48 hrs by Annexin V-FITC/PI staining based flow cytometric analysis (reference value: 1.47 %). The format is functional.
Series [12] in a line: Induction of apoptosis in mouse BaF3 cells harboring EGFR 19del/T790M/C797S mutant assessed as early apoptotic cells at 300 nM incubated for 48 hrs by Annexin V-FITC/PI staining based flow cytometric analysis (reference value: 0.36 %). Format: functional.
Series [13] is described as follows: Induction of apoptosis in mouse BaF3 cells harboring EGFR 19del/T790M/C797S mutant assessed as early apoptotic cells at 30 nM incubated for 48 hrs by Annexin V-FITC/PI staining based flow cytometric analysis (reference value: 0.36 %). The format is functional.
Series [14] in a line: Induction of apoptosis in mouse BaF3 cells harboring EGFR 19del/T790M/C797S mutant assessed as late apoptotic cells at 30 nM incubated for 48 hrs by Annexin V-FITC/PI staining based flow cytometric analysis (reference value: 1.47 %). The format is functional.
For series [15], the system named is BaF3. The experiment in a line: Antitumor activity against mouse BaF3 cells harboring 19del/T790M/C797S mutant implanted in female BALB/c nu/nu mouse assessed as tumor growth inhibition at 20 mg/kg, po administered once daily for 9 days relative to control. The format is functional. As to conditions: BaF3, 216 h, time 9 day, read-out: TGI.
In series [16] the target is Epidermal growth factor receptor (Homo sapiens, UniProt P00533, C797S/L858R/T790M). The experiment in a line: Inhibition of recombinant C-terminal His-tagged/N-terminal GST-tagged human EGFR T790M/C797S/L858R mutant (668 to 1210 residues) extracted from baculovirus infected Sf9 insect cells incubated for 1 hrs by spectrophotometric analysis.
Series [17] is described as follows: Induction of apoptosis in mouse BaF3 cells harboring EGFR 19del/T790M/C797S mutant assessed as late apoptotic cells at 30 nM incubated for 48 hrs by Annexin V-FITC/PI staining based flow cytometric analysis (reference value: 1.75 %). Format: functional.
Series [18] in a line: Induction of apoptosis in mouse BaF3 cells harboring EGFR 19del/T790M/C797S mutant assessed as early apoptotic cells at 100 nM incubated for 48 hrs by Annexin V-FITC/PI staining based flow cytometric analysis (reference value: 2.48 %). The format is functional.
The nature of series [19]: Induction of apoptosis in mouse BaF3 cells harboring EGFR 19del/T790M/C797S mutant assessed as early apoptotic cells at 30 nM incubated for 48 hrs by Annexin V-FITC/PI staining based flow cytometric analysis (reference value: 2.48 %). The format is functional.
Series [20] is described as follows: Induction of apoptosis in mouse BaF3 cells harboring EGFR 19del/T790M/C797S mutant assessed as late apoptotic cells at 1000 nM incubated for 48 hrs by Annexin V-FITC/PI staining based flow cytometric analysis (reference value: 1.75 %). The format is functional.
Series [21] is described as follows: Induction of apoptosis in mouse BaF3 cells harboring EGFR 19del/T790M/C797S mutant assessed as early apoptotic cells at 1000 nM incubated for 48 hrs by Annexin V-FITC/PI staining based flow cytometric analysis (reference value: 2.48 %). Format: functional.
Series [22] in a line: Induction of apoptosis in mouse BaF3 cells harboring EGFR 19del/T790M/C797S mutant assessed as late apoptotic cells at 300 nM incubated for 48 hrs by Annexin V-FITC/PI staining based flow cytometric analysis (reference value: 1.75 %). Format: functional.
Series [23] in a line: Induction of apoptosis in mouse BaF3 cells harboring EGFR 19del/T790M/C797S mutant assessed as early apoptotic cells at 300 nM incubated for 48 hrs by Annexin V-FITC/PI staining based flow cytometric analysis (reference value: 2.48 %). Format: functional.
Series [24] in a line: Induction of apoptosis in mouse BaF3 cells harboring EGFR 19del/T790M/C797S mutant assessed as late apoptotic cells at 100 nM incubated for 48 hrs by Annexin V-FITC/PI staining based flow cytometric analysis (reference value: 1.75 %). Format: functional.

Sequence of Epidermal growth factor receptor (Homo sapiens, UniProt P00533, L858R/T790M) (P00533 25-1210 T790M/L858R limits assumed): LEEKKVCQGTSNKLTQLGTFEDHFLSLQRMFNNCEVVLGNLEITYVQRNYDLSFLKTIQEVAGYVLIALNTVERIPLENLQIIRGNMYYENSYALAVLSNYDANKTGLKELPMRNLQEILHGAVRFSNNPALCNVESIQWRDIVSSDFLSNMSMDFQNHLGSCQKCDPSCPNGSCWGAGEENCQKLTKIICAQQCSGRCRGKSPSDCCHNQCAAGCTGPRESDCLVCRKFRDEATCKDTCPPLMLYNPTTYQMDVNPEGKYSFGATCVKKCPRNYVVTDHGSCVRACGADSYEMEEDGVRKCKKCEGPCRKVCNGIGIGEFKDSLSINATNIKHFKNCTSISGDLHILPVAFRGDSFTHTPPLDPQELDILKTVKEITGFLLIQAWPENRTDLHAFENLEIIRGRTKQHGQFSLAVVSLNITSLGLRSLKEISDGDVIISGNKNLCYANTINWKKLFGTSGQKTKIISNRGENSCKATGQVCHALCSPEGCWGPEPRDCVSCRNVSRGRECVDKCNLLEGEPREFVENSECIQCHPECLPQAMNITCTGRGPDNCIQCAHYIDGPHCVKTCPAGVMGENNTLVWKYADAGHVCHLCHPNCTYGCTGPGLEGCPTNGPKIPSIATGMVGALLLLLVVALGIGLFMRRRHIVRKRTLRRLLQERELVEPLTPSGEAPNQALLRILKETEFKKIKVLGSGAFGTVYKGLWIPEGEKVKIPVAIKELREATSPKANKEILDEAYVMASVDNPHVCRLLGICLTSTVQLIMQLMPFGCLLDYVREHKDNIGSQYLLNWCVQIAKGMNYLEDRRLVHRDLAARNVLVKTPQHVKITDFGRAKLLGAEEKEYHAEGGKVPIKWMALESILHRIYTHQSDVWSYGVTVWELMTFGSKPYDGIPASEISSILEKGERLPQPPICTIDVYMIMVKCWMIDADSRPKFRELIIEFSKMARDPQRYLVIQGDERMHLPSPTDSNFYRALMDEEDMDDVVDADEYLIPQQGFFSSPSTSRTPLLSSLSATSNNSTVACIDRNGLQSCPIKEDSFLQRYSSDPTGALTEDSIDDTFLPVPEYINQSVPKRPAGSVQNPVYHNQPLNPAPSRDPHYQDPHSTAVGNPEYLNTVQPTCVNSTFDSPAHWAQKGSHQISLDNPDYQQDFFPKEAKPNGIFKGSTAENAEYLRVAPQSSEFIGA
Sequence of Epidermal growth factor receptor (Homo sapiens, UniProt P00533, C797S/EX19DEL/T790M) (P00533 whole entry, looked up, stated change not applied, the tested form may be a part): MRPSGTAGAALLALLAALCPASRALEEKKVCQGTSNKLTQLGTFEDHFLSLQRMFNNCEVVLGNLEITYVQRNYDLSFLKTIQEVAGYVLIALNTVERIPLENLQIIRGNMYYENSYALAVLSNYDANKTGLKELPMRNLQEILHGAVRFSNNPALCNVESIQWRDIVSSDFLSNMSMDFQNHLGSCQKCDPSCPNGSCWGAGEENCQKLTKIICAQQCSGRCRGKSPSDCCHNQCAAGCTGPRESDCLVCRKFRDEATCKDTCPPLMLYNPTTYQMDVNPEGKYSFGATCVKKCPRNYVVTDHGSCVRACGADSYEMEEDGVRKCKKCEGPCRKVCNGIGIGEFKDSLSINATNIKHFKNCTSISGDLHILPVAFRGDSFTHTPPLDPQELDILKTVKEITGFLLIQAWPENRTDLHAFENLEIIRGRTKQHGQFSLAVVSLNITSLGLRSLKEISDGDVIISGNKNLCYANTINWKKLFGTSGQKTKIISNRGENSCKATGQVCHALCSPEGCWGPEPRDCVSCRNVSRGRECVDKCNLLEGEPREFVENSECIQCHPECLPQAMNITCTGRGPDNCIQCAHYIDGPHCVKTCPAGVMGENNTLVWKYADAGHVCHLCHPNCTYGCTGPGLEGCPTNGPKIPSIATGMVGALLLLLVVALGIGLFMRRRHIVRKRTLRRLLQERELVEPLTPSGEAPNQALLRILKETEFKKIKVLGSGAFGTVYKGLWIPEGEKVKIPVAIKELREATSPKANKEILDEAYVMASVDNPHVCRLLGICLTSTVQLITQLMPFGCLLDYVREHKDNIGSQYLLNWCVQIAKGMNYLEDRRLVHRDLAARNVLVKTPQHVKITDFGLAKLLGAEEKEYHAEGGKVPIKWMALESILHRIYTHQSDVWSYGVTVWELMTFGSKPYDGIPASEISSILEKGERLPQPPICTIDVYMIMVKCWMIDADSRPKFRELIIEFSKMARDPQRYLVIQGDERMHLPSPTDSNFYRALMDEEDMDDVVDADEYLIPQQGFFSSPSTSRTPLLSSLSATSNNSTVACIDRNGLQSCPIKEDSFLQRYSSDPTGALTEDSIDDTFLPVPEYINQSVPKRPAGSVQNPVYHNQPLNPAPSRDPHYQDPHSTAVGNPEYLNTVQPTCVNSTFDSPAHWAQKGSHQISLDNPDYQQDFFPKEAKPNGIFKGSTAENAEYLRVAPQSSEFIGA
Sequence of Epidermal growth factor receptor (Homo sapiens, UniProt P00533) (P00533 whole entry, the tested form may be a part): as the sequence (P00533 whole entry, looked up, stated change not applied, the tested form may be a part) above
Sequence of Epidermal growth factor receptor (Homo sapiens, UniProt P00533, C797S/L858R/T790M) (P00533 25-1210 T790M/C797S/L858R limits assumed): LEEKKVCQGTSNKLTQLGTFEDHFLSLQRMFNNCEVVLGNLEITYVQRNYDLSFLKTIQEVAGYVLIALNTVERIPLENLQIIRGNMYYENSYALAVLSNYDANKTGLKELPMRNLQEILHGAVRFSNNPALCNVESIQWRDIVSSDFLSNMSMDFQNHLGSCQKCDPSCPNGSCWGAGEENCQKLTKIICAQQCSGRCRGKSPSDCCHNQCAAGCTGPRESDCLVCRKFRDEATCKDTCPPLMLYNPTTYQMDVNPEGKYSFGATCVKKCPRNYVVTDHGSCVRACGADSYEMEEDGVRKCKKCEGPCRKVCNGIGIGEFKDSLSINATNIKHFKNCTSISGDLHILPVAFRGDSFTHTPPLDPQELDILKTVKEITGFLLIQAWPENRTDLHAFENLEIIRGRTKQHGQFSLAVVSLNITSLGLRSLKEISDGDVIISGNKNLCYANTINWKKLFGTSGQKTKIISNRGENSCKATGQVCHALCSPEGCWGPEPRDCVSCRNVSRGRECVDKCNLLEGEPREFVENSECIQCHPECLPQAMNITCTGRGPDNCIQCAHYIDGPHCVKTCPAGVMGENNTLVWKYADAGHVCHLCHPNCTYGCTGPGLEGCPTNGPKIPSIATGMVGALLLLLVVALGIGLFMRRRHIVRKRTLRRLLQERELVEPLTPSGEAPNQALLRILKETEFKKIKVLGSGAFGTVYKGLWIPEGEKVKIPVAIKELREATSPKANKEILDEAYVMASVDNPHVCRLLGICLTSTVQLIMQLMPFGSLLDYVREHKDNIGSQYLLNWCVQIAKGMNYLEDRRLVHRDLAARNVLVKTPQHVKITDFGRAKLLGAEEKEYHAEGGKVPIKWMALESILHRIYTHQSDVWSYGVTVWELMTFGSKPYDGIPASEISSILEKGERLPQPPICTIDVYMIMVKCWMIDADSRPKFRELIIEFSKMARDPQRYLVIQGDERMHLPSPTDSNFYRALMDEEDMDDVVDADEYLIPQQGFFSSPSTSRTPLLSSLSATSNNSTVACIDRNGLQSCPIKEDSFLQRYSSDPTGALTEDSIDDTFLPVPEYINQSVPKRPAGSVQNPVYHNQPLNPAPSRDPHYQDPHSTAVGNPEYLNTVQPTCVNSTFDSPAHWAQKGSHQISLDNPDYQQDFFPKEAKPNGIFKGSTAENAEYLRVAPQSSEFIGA
Description for A-431: Antiproliferative activity against human A-431 cells harboring wildtype EGFR assessed as inhibition of cell proliferation measured after 72 hrs by SRB assay

Consider `COc1cc(N2CCN(C)CC2)c2cc1Nc1ncc(C)c(n1)Nc1ccc(cc1P(C)(C)=O)OCCCn1cc-2cn1`, for which the IC50 – broadly, the concentration that inhibits the measured activity by half – in the series “cells” was 62 nM; in the series on BaF3 [2], less than 16 nM; in the series on BaF3 [3], 146 nM; in the series on A-431, 161 nM. Besides, in [1], the IC50 at 72 h was 2250 nM.
In the case of `COc1cc(N(C)CCN(C)C)c2cc1Nc1nccc(n1)-c1cc(C#N)n(c1)CCCCC(=O)N2`, the IC50 in series [4], in series [5] and in series [6] was greater than 1000 nM in each case.
For `COc1cc(N(C)CCN(C)C)c2cc1Nc1nccc(n1)-c1cnn(c1)CCCCC(=O)N2`, the IC50 in series [4], in series [5] and in [6] was greater than 1000 nM each time.
As for `COc1cc(N2CCC(N3CCN(C)CC3)CC2)c(C)cc1Nc1ncc(Br)c(Nc2ccc3nccnc3c2P(C)(C)=O)n1`, the IC50 in the series “cells” turned out to be 94 nM; with BaF3 [2] it was 100 nM; with BaF3 [3], 176 nM; in the series on A-431, 302 nM. The Activity in series [7] stood at 22.63%; in series [8] it was 3.84%; in [9], 64.67%; in [10] it was 6.67%; in series [11] it was 18.4%; in series [12], 50.63%. For the same compound, the Activity is 2.39% in series [13] and 1.98% in series [14]. In addition, the IC50 at 72 h in series [1] came out at 2040 nM. Also, in the series on BaF3 [15], the inhibition in vivo at 20 mg/kg amounted to 78.4%.
As for `COc1cc(N(C)CCN(C)C)c2cc1Nc1ncc(C)c(n1)Nc1ccc(cc1P(C)(C)=O)OCCCCCC2`, the IC50 in the series “cells” was 1000 nM; in the series on BaF3 [2], 1730 nM; in the series with BaF3 [3], 2090 nM; in the series on A-431 it was greater than 10000 nM. In addition, the IC50 at 72 h in series [1] is greater than 10000 nM.
`C=CC(=O)Nc1cc(Nc2nccc(-c3cn(C)c4ccccc34)n2)c(OC)cc1N(C)CCN(C)C` [OSIMERTINIB]: the IC50 in the series “cells” is 2600 nM; in the series on BaF3 [2], 1550 nM; in the series on BaF3 [3], 1760 nM; in the series on A-431 it was […].
Take `COc1cc(N(C)CCN(C)C)c2cc1Nc1ncc(C(=O)OC(C)C)c(n1)Nc1ccc(cc1P(C)(C)=O)OCCCCC(=O)N2`: the IC50 in series [16], in [4], in series [5] and in series [6] was greater than 1000 nM throughout.
As to `COc1cc(N(C)CCN(C)C)c2cc1Nc1ncc(C)c(n1)Nc1ccc(cc1P(C)(C)=O)OCCCCC(=O)N2`, the IC50 in “cells” was 2330 nM; in the series on BaF3 [2], greater than 10000 nM; with BaF3 [3], greater than 10000 nM; in the series on A-431 it was 4370 nM. Also, the half-inhibitory concentration (IC50) at 72 h in series [1] was greater than 10000 nM.
Consider `COc1cc(N(C)CCN(C)C)c2cc1Nc1nccc(n1)-c1cn(c3cc(P(C)(C)=O)ccc13)CCCCC(=O)N2`, for which the IC50 in series [4], in series [5] and in [6] was greater than 1000 nM each time.
Turning to `COc1cc(N2CCC(N3CCN(C)CC3)CC2)c2cc1Nc1ncc(C)c(n1)Nc1ccc(cc1P(C)(C)=O)OCCCn1cc-2cn1`, the IC50 in the series “cells” stood at 38 nM; with BaF3 [2] it was 41 nM; in the series on BaF3 [3], 313 nM; in the series on A-431, 158 nM. Further, the IC50 at 72 h in series [1] came out at 2770 nM.
In the case of `COc1cc(N2CCC(N3CCN(C)CC3)CC2)ccc1Nc1ncc(Cl)c(Nc2ccccc2P(C)(C)=O)n1` [BRIGATINIB], the IC50 was determined as 314 nM in the series “cells”, 382 nM with BaF3 [2], 392 nM in the series on BaF3 [3] and 436 nM in the series with A-431. In addition, the IC50 at 72 h in series [1] is 2380 nM. The Activity in series [17] amounted to 1.21%; in series [18], 3.51%; in [19] it was 2.4%; in [20], 6.87%; in [21] it was 32.44%; in series [22] it was 1.86%. The figures for the Activity in series [23] and in series [24] were 4.25% and 1.3%, respectively.
For `COc1cc(N(C)CCN(C)C)c2cc1Nc1ncc(C)c(n1)Nc1ccc(cc1P(C)(C)=O)OCCCn1cc-2cn1`, the IC50 in “cells” was 104 nM; in the series with BaF3 [2] it was 174 nM; with BaF3 [3], 394 nM; with A-431 it was greater than 10000 nM. The IC50 at 72 h in series [1] was greater than 10000 nM.

The record behind these values is ChEMBL document CHEMBL6127132, “Design, Synthesis, and Biological Evaluation of Novel Diaminopyrimidine Macrocycles as Fourth Generation Reversible EGFR Inhibitors That Overcome Clinical Resistance to Osimertinib Mediated by C797S Mutation” (J Med Chem, 2024).
